Results taken from patent US10131635B2, “Compositions and methods of using the compositions for plaque softening” (ALUMEND, LLC, priority 2013, dated 2018).

Experiments:
[1] = tested on: artery; assay: Arterial compression by other photoactivated material; conditions: FIG. 13
Method: Singlet oxygen generating species, such as Rose Bengal, riboflavin, and methylene blue were tested to determine if they would be effective at arterial compression.

[2] = tested on: calcified plaque in postmortem diseased femoral arteries; assay: IVUS analysis of human cadaveric arterial samples (echogenicity)
Text: The following equipment was used in this Example: IVUS, Boston Scientific iLab 120 CARTR, UPN Product number: H749iLab120CARTRO, manufactured April 2011, Serial number 7347. The software is iReview version 1.0. The catheter is Boston Scientific Atlantis SR Pro 40 MHz Coronary Imaging Catheter, catalog number 38942, 3.6 F×135 cm.
IVUS images have identified different types of plaque, e.g., soft, mixed, hard, and calcified. M. Sahara, et al., “Soft Plaque Detected on Intravascular Ultrasound Is the Strongest Predictor of In-Stent Restenosis: an Intravascular Ultrasound Study,” European Heart Journal, 25: 2026-2033 (2004), the disclosure of which is hereby incorporated by reference. For example, calcified plaque has been identified by two characteristics, i.e., a high echogenicity resulting in an intense reflection (bright white) and the presence of an acoustic shadow behind the plaque because the ultrasound cannot penetrate the calcified plaque.
Postmortem diseased femoral arteries (both left and right) were received approximately 16 hours after the time of death. The samples were inspected to assess the level of disease. When palpated both the right and left arteries were extremely hard and rigid throughout the entire length of both arteries. Occlusion was visually judged as ranging from 20-60%. The artery was placed in PBS and IVUS pullback (0.5 mm/s) was completed three times (PRE 1, PRE 2, PRE 3). […] The artery was thoroughly rinsed with PBS to remove any excess plaque-softening compound. The artery was then placed into PBS and an IVUS pullback was conducted three times (SOAK 1, SOAK 2, SOAK 3). A balloon angioplasty catheter was placed into the artery and inflated to the reference vessel diameter (RVD) without any overstrech. A radially emitting light fiber was inserted into the catheter and centered in the angioplasty balloon. The composition was activated by exposure to blue light (447 nm) at an intensity of 1800 mW for 60 seconds. The balloon catheter was removed and an IVUS pullback was completed three times (POST 1, POST 2, POST 3).
Each frame of each pullback (PRE 1, PRE 2, PRE 3, SOAK 1, SOAK 2, SOAK 3, POST 1, POST 2, POST 3) was analyzed and calcified plaque was identified including the acoustic shadow behind each area of plaque. FIGS. 15a and 15b are the IVUS images from frame 921 of PRE 1 and illustrate the existence of plaque. For each frame, the intensity of each gray pixel (based upon 255 shades of gray, “AVI” format and 521×521 pixels) within the arterial wall was determined. FIG. 17 is a histogram illustrating the gray scale of frame 921, PRE 1, wherein the y-axis is the pixel count and the x-axis is the pixel intensity. So, for example, there were a lot of pixels having a pixel intensity of 16 and very few pixels having a pixel intensity of 168. It is known that the relative amount of hypo-echogenic and hyper-echogenic reflections can be used to measure the change in calcified plaque. See S. Brugaletta, et al., “Serial In Vivo Intravascular Ultrasound-Based Echogenicity Changes of Everolimus-eluting Bioresorbable Vascular Scaffold During the First 12 Months After Implantation,” JACC: Cardiovascular Interventions, 4 (12):1281-1289 (2011), the disclosure of which is hereby incorporated by reference. For example, it is known that pixels with a gray scale intensity of 92 or lower were judged to be hypo-echogenic and those with a gray scale intensity of 93 or higher were judged to be hyper-echogenic. To be clear, in the instant Example, the mean gray value of the adventitia was used to classify tissue components as either hypo- or hyper-echogenic. One of ordinary skill in the art could easily determine the gray scale threshold for any data set in order to classify tissue components as either hypo- or hyper-echogenic.
The pixel intensity of the entire IVUS pullback data was analyzed as a single data set. […]

[3] = Linker solution hydrolysis (release of drug mimic, HPLC, first order rate constant); assay type: physicochemical; conditions: 37° C.
Method: The hydrolysis rate of a linker was studied without attachment to a naphthalimide compound or tissue attachment under physiological conditions. The work verified the expected hydrolysis rate and when combined with ex vivo data allows the influence of the tissue on the hydrolysis rate to be determined.
A 20 mg/mL stock solution of a drug mimic, such as an FITC derivative, was prepared by weighing out approximately 20 mg of material and diluting with 1 mL of H20. The release rate of each compound, the free mimic from its respective linker, was studied in duplicate as a function of time and pH (phosphate buffered saline (PBS) at pH=1, pH=7.4, and pH=10). The starting concentration for each preparation was 400 μg/mL of drug mimic with attached linker (20 μL of stock solution diluted with 980 μL of hydrolysis PBS). In order to more accurately mimic clinical conditions samples were prepared and stored in a 37° C. oven with slow agitation using a rotating mixer until analyzed using HPLC. The concentration of the target complex was determined in duplicates at multiple time points (t=0, 8, 24, 48, 72, 144, 216 hours) using the HPLC conditions below and quantitation using a standard curve. A 2 mg/mL stock solution of the target complex was prepared by weighing out approximately 20 mg of target complex and diluting with 10 mL of H2O. The following concentrations from the stock solution were prepared by performing serial dilutions in H2O:
Quantitation using a standard curve was used to determine the amount of drug mimic released (μg) at each time point and duplicate sample preparations at each time point were averaged. […] The detection limit of the method was 1 μg/mL. The standard curve for 3-phenylpropanol was also linear over the range of 1 μg/mL to 100 μg/mL with a detection limit of the method at 1 μg/mL.
Using the HPLC release data calculated for the free Bn and 3PP, shown below, kinetic curves were plotted (concentration vs time) for each compound using PSI Plot. The concentration was fit to a first order kinetic equation, where CT=CF−Cce^−kt (CT is the concentration at each time point (μg), CF is the final concentration (μg), Cc is the change in concentration (μg), and k is the rate constant (hr^−1). If the reaction rate didn't display first order kinetics (ie: there was a systematic deviation between the experimental points and the calculated rate constant) other kinetic models were examined. Typically data was collected until at least 90% of the expected product was released. A sample kinetic curve is shown in FIG. 15B.
The HPLC method was able to determine the identity of each compound and the component linker and drug mimic by the retention time as shown in the Table below. • Analytical Column: Alltima HP Rocket C18 3μ 53 mm×7 mm • Mobile Phase: A: 0.1% Trifluoroacetic acid(aq) (TFA), • B: 9:1 Acetonitrile:Water (0.1% TFA) • Gradient: 95% A hold for 1 minute, then ramp to 65% B at 7 minutes, hold for 0.5 minutes • (Equilibration time 5 minutes) • Detector: PDA detector at 440 nm Fluorescence detector excitation wavelength at nm emission wavelength at nm • Injection Volume: 20 μL • Flow Rate: 2.5 mL/min
Using the concentration versus time data, a rate constant was calculated for each compound at various pHs. […] The enhanced rate for the hydrolysis of the Gly/Bn is likely due to the formation of an internal 5 membered ring that would be autocatalytic.

Row | Compound | efficacy at arterial compression [1] | hydrolysis rate constant k ([3]; pH 1, PBS) [h⁻¹] | hydrolysis rate constant k ([3]; pH 7.4, PBS) [h⁻¹] | hydrolysis rate constant k ([3]; pH 10, PBS) [h⁻¹] | other results
1 | Cc1cc2nc3c(=O)[nH]c(=O)nc-3n(C[C@H](O)[C@H](O)[C@H](O)CO)c2cc1C [riboflavin] | No efficacy was observed |  |  |  | 
2 | Nc1ccc2c3c(cccc13)C(=O)NC2=O [4-amino-1,8-naphthalimide] |  |  |  |  | flexibility of artery after treatment ([2]; after soak, balloon and light activation): more flexible and softer; Hypo-Echogenic pixels/Hyper-Echogenic pixels ([2]; entire IVUS pullback data, POST (soak plus balloon and 447 nm 1800 mW 60 seconds)): 5.011; Hypo-Echogenic pixels/Hyper-Echogenic pixels ([2]; entire IVUS pullback data, SOAK (2.5 mM, 5 minutes)): 4.699; Hypo-Echogenic pixels/Hyper-Echogenic pixels ([2]; frame 921, POST): 12.556; Hypo-Echogenic pixels/Hyper-Echogenic pixels ([2]; frame 921, SOAK): 7.500; Hypo-Echogenic pixels/Hyper-Echogenic pixels ([2]; frame 2925, POST): 21.050; Hypo-Echogenic pixels/Hyper-Echogenic pixels ([2]; frame 2925, SOAK): 9.043
3 | O=C([O-])c1c(Cl)c(Cl)c(Cl)c(Cl)c1-c1c2cc(I)c(=O)c(I)c-2oc2c(I)c([O-])c(I)cc12.[Na+].[Na+] [Rose Bengal] | No efficacy was observed |  |  |  | 
4 | NCCCC(=O)OCc1ccccc1 [GABA/Bn, Benzyl GABA] |  | 0.026 | 0.011 | 0.226 | 
5 | NCC(=O)OCc1ccccc1 [Gly/Bn, Benzyl Glycinate] |  | 0.002 | 0.311 | 0.156 | 
6 | NCC(=O)OCCCc1ccccc1 [Gly/3PP, 3-Phenylpropyl Glycinate] |  | 0.004 | 0.082 | 0.155 | 
7 | CN(C)c1ccc2nc3ccc(=[N+](C)C)cc-3sc2c1 [methylene blue] | No efficacy was observed |  |  |  | 
8 | NCCCC(=O)OCCCc1ccccc1 [GABA/3PP, 3-Phenylpropyl GABA] |  | 0.034 | 0.010 | 0.124 | 
